The target in data set [1] is T1, recombinant PKD1 (Homo sapiens, UniProt Q15139).
T1 construct: purchased Upstate Biotechnology
T1 sequence (Q15139 1-912): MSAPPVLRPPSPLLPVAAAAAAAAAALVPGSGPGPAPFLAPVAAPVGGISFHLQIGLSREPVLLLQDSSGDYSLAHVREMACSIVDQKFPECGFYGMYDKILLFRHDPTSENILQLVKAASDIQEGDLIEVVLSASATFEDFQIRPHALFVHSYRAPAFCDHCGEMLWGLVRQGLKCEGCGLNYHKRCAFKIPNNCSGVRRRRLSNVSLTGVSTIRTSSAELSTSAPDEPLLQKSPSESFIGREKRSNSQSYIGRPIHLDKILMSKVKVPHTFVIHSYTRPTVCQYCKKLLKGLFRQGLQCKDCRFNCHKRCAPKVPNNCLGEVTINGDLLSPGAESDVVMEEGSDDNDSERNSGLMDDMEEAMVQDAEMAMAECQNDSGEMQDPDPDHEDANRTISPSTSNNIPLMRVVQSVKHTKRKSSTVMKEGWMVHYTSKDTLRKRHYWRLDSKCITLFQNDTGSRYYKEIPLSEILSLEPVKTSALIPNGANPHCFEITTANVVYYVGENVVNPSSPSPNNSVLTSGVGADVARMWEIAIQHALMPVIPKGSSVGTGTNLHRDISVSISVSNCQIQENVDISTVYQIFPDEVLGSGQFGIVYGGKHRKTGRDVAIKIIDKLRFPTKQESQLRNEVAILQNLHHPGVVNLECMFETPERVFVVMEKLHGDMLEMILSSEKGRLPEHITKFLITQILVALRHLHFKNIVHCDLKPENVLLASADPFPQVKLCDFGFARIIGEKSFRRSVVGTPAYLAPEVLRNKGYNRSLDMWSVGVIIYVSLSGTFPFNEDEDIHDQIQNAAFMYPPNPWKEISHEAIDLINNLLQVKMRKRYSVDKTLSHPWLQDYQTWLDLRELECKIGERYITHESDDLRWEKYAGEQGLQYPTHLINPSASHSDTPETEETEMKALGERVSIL
In words: in vitro kinase assay. Format: biochemical. Here is the method:
The procedure for the in vitro kinase assay was modified from a previous report (Storz et al, 2003). Briefly, recombinant PKD1 (Upstate Biotechnology) was used as the source of enzyme in 20 μl of kinase buffer (50 mM Tris/HCl, pH 7.4, 10 mM MgCl2, 2 mM dithiothreitol). The kinase reaction was carried out for 30 min at room temperature after addition of 10 μl of kinase substrate mixture (150 μM substrate peptide, 50 μM ATP, 10 μCi of [γ-^32P]ATP in kinase buffer). A PKD1-specific substrate (Santa Cruz Biotechnology) was employed as a positive control. […] The reactions were terminated by adding 100 μl of 0.75% H3PO4, and 30 μl of the mixed supernatant was spotted to P-81 phosphocellulose paper (Whatman) in triplicates. Papers were washed thoroughly three times with 0.75% phosphoric acid, once with acetone, dried, and radioactivity incorporated into the synthetic peptide was determined in a scintillation counter. Endogenous PKD1 was immunoprecipitated with an anti-PKD1 antibody (SC-935; Santa Cruz) from 786-O cells lysed in a buffer containing 137 mM NaCl, 20 mM Tris (pH 7.5), 1 mM EGTA, 1 mM EDTA, 10% (v/v) glycerol, 1% (v/v) Nonidet P-40, 1 mM vanadate, and protease inhibitor cocktail (Roche). The immune complexes were washed three times with TBS (50 mM Tris/HCl, pH 7.4, 150 mM NaCl) and subjected to in vitro kinase assays.

The subject of data set [2] is CDC25A. In words: CDC25A and PGK1 mRNA by real-time RT-PCR in siRNA-transfected HCT116 cells. Format: cell-based, human. The settings on record: siRNA 24 h then hypoxia 16 h. How it is done:
Real-Time RT-PCR. Real-time RT-PCR was performed essentially as described previously (Koshiji et al. 2005). Primer and probe (Applied Biosystems) sequences were as follows: CDC25A, forward 5′-[…]-3′ (SEQ ID NO: 25), reverse 5′-[…]-3′ (SEQ ID NO: 26), probe 5′-FAM-[…]-MGB-3′ (SEQ ID NO: 27). PGK-1 (FAM-MGB probe) and ACTB (VIC-MGB probe) were detected with endogenous control reagents from Applied Biosystems. β-actin primers and probe were included into each reaction for normalization. All the experiments were repeated three times in triplicate, and representative results were presented in mean±standard error.
(§1) RNA Interference. Transfection with siRNA duplexes and siRNA sequence information were described previously (Koshiji et al. 2005). CHK1 siRNA was described previously (Zhao et al. 2002). Luciferase siRNA was used as negative control.

Data set [3] concerns NBS1. As to the kind of experiment: NBS1 mRNA levels by real-time PCR in HCT116 cells. It counts as cell-based, human. The following applies: siRNA, hypoxia 1% O2 16 h. Here is the method:
HCT116 TP53^+/+, HCT116 TP53^−/− cells (Koshiji et al., 2004), and U-2 OS were grown in McCoy's 5A medium (Invitrogen), and HeLa cells in DMEM. For hypoxic treatment, cells were incubated in a hypoxic chamber (Innova CO-48, New Brunswick Scientific) maintaining 1% O2 and 5% CO2. Recombinant adenovirus generation and infection were as previously described (Koshiji et al., 2004).
Total RNA extraction, reverse transcription, and quantitative PCR were performed essentially as described previously (Koshiji et al., 2005). Taqman Gene Expression Assay kits for NBS1, MRE11A, RAD50, MSH2, and ACTB were purchased from Applied Biosystems. All experiments were repeated three times in triplicates, and representative results were presented as means±standard errors.
A general note: Real-time PCR tracks product formation cycle by cycle.

The test system of data set [4] is HIF-2α. In words: Western blot after siRNA transfection of HCT116 cells. It counts as cell-based, human. Here is the method:
Western Blot. Western blot analysis was carried out as described previously.
as §1
In general terms: A western blot detects proteins with antibodies after separation by electrophoresis.

The subject of data set [5] is Sp1. In words: anti-Sp1 immunoprecipitation of in vitro translated products. Format: binding, rabbit. The settings on record: 100 μM during synthesis of PAS2B in rabbit reticulocyte lysate. Here is the method:
Previously, it was shown that Myc displacement is mediated by the N-terminal HIF-1α (1-329), which competes with Myc for Sp1 binding in the MSH2 promoter (Koshiji et al, 2005). […] […] […] Of note, removal of part of the PAS-B from the C terminus (codon 299-329) destroyed Sp1 binding.
Immunoprecipitations and Western blot was performed essentially as described previously (Huang et al., 1998; Koshiji et al., 2005). In vitro translation and immunoprecipitations are described as before (Gu et al., 2001; Koshiji et al., 2005). […]

Data set [6] has as its system Sp1. In words: anti-Sp1 immunoprecipitation followed by immunoblotting in HeLa cells. It counts as cell-based. The following applies: HeLa cells expressing PAS2B treated with 5 nM of resveratrol. Here is the method: Immunoprecipitations and Western blot was performed essentially as described previously (Huang et al., 1998; Koshiji et al., 2005). In vitro translation and immunoprecipitations are described as before (Gu et al., 2001; Koshiji et al., 2005). The wheat germ extract system was purchased from Promega. λ protein phosphatase (New England Biolabs) and resveratrol (Sigma) with indicated concentrations were added to the in vitro translated products before immunoprecipitations.

Data set [7] deals with synthetic peptide corresponding to HIF-1α residues 299-329.
For data set [8], the target named is synthetic peptide including HIF-2α residues 314-331.
In data set [9] the target is synthetic peptide harboring HIF-2α T324V mutation.

The text below walks through data of patent US20100074897A1, “Methods and Compositions related to HIF-1 alpha” (University of Utah Research Foundation, priority 2006, published 2010).

Consider “Ac-YGRKKRRQRRRGGGVWLETQGTVIYNPRN L-NH2 [HIF-2α peptide]”, for which the “phosphorylation of peptide substrate by recombinant PKD1” value in data set [1] (150 μM substrate peptide, 30 min, room temperature) was “robustly phosphorylated”.

Take “5′-AACAGCATCTTTGATAGCAGT-3″ [EPAS1 siRNA]”: the “effect on hypoxic CDC25A down-regulation and PGK1 up-regulation” value in [2] is on record as “no obvious effects”. Also, the “effect on NBS1 and MSH2 downregulation and PGK1 upregulation in hypoxic cells” value in data set [3] is given as “no obvious effects”. Further, in data set [4], the HIF-2α levels result is given as “reduced specifically”.

In the case of `Oc1ccc(C=Cc2cc(O)cc(O)c2)cc1` [resveratrol, reference compound], the “PKD1-mediated phosphorylation of consensus substrate peptide and HIF-2α peptide” value in [1] (recombinant PKD1 preincubated with resveratrol (100 μM) for 10 min) is “abrogated”. Further, the “Sp1 binding of PAS2B” value in data set [5] is recorded as “established Sp1 binding”. In addition, in [6], the PAS2B-Sp1 immunoprecipitated complexes result was “yielded PAS2B-Sp1 immunoprecipitated complexes”.

B1: recombinant PKD1 (Upstate Biotechnology) (protein)
chain: T1 sequence (Q15139 1-912)
As for B1, the “PKD1-mediated phosphorylation in an in vitro kinase assay (c.p.m.)” value in data set [7] is given as “a HIF-2α peptide, but not its HIF-1α counterpart, was robustly phosphorylated”; in data set [8], “a HIF-2α peptide, but not its HIF-1α counterpart, was robustly phosphorylated”; in [9] it was “replacement of Thr-324 with valine abolished phosphorylation”.
